The text below walks through data of patent US10995083B2, “Cocrystal of 2-(6-methyl-pyridine-2-yl)-3-yl-[6-amide-quinoline-4-yl]-5,6-dihydro-4H-pyrrole[1,2-b]pyrazole, preparation method therefor, and pharmaceutical composition” (Hangzhou SoliPharma Co., Ltd., priority 2017, dated 2021).

Molecules are shown by their SMILES. Where a name gives a salt, the structure may show the parent alone.

Data set [1] in a line: apparent water solubility test. The data set is classed as physicochemical. The settings on record: for Solubility: apparent water solubility, 25° C.±2° C., clarity observed by naked eye, 5 mg sample, max 100 mL water; for apparent water solubility: as shown in Comparative Example 1. Here is the method: Accurately weighed 5 mg samples in a 200 mL flask which was in a water bath with temperature 25° C.±2° C., added water in a geometric fashion the flask, stirred (about 200 r/min), and observed by naked eyes to see if it was clear. Water was added every 3 mins, maximum water amount 100 mL.

Data set [2] is described as follows: storage phase stability of crystalline form at 25° C./60% relative humidity. The following applies: 6 months of storage at 25° C./60% relative humidity. The format is physicochemical.

With `Cc1cccc(-c2nn3c(c2-c2ccnc4ccc(C(N)=O)cc24)CCC3)n1` [LY2157299 fumarate cocrystal form, 2-(6-methyl-pyridin-2-yl)-3-(6-amido-quinolin-4-yl)-5,6-dihydro-4H-pyrrolo[1,2-b]pyrazole], in data set [1], the Solubility came to 330 µg/mL and the apparent water solubility entry is listed as “about 330 ug/mL”. In addition, the “crystalline form after storage (phase stability)” value in data set [2] is “remained its original crystalline form”.

Regarding `Cc1cccc(-c2nn3c(c2-c2ccnc4ccc(C(N)=O)cc24)CCC3)n1` [LY2157299 Monohydrate, 2-(6-methyl-pyridin-2-yl)-3-(6-amido-quinolin-4-yl)-5,6-dihydro-4H-pyrrolo[1,2-b]pyrazole, reference compound], in data set [1], the Solubility is under 50 µg/mL and the apparent water solubility entry was “less than 50 ug/mL”.

As to `Cc1cccc(-c2nn3c(c2-c2ccnc4ccc(C(N)=O)cc24)CCC3)n1` [LY2157299 succinate cocrystal form, 2-(6-methyl-pyridin-2-yl)-3-(6-amido-quinolin-4-yl)-5,6-dihydro-4H-pyrrolo[1,2-b]pyrazole], in data set [1], the Solubility turned out to be 130 µg/mL and the apparent water solubility result was “about 130 ug/mL”. Also, in data set [2], the “crystalline form after storage (phase stability)” value is reported as “remained its original crystalline form”.

By Solubility is commonly meant the dissolved amount per volume that the medium holds.
